{"source": "patent US9433663B2", "about": "“Mobilization of hematopoietic stem cells” (Children's Hospital Medical Center, priority 2008, dated 2016)", "key": {"[1]": {"target": "Rho (Homo sapiens, UniProt P61586)", "sequence (P61586 whole entry)": "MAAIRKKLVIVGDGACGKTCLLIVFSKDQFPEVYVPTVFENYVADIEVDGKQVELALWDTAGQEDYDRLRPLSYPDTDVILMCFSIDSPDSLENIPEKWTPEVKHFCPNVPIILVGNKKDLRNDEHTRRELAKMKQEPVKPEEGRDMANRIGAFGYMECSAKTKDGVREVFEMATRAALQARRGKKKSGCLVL", "test": "nucleotide exchange: Large-induced exchange of mant-GDP with Rho", "type": "biochemical", "description": "For example, even at 10 times the IC50 of Cdc42, a 50% inhibition of the association of mant-GDP with Rac or Rho was not achieved."}, "[2]": {"target": "T1, RhoA (Mus musculus, UniProt Q9QUI0)", "T1 construct": "endogenous in cells; host or cells: murine LDBM cells", "T1 sequence (Q9QUI0 whole entry)": "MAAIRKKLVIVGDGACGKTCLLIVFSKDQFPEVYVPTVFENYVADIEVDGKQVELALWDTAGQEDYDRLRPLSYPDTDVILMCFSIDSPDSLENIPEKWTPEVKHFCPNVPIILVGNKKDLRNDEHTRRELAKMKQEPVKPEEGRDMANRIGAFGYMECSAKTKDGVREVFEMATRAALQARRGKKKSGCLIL", "test": "Rho GTPase effector pull-down in murine LDBM cells, RhoA", "type": "cell-based", "details": "parallel pull-down assay", "experimental": "To analyze the effects of CASIN on the formation of active GTP-bound Cdc42, RhoA, and Rac1, effector pulldown assays were carried out as described previously. Cdc42GAP^−/− MEF, LDBM, CD34^+ hCB cells were treated with CASIN at doses of 5-20 μM in parallel with vehicle control for 2 hrs after overnight starvation, and stimulated with cytokines subsequently. And then cells were lysed in a buffer containing 20 mM Tris-HCL (pH 7.6), 100 mM NaCl, 1% Triton X-100, 10 mM MgCl2, 2 mM NaF, and Protease inhibitor cocktail (Roche Diagnostics). Lysates were incubated with GST-P21-binding domain of PAK1 for RAC1-GTP and Cdc42-GTP, and GST-RBD domain of Rhotekin for RhoA-GTP respectively. Both bound- and unbound-form of Rho GTPases were probed by immunoblotting with antibodies specific for Rac1 (BD biosciences), Cdc42 (BD biosciences), and RhoA (cell signaling)."}, "[3]": {"tested_on": "human CD34^+ umbilical cord blood cells", "test": "migration of human CD34+ HCB cells", "type": "cell-based", "details": "5 μM", "experimental": "FIG. 4C. relative migration of human CD34^+ cord blood cells in the presence of CASIN at dose of 5 μM in comparison to that of control.\nTo begin to study potential utility of CASIN in human hematopoietic stem cell mobilization, a series of cellular assays were carried out to determine the effects on human CD34^+ umbilical cord blood cells (HCBs). […] The effects of CASIN on human hematopoietic cell mobilization was therefore tested using a well established preclinical in vivo model (NOD/SCID-Hcb) of human hematopoietic function, where fresh CD34^+ hCB cells were transplanted into sub-lethally irradiated NOD/SCIDs by intrafemoral injection, and repopulated and maintained human hematopoietic reconstitution in the bone marrow of NOD/SCID recipient mice (FIG. 9b, FIG. 11) (Larochelle, A. et al. Nat Med 2, 1329-1337 (1996); Bhatia, M., et al. Proc Natl Acad Sci USA 94, 5320-5325 (1997)). Intravenous injections of CASIN were applied when human cells were well engrafted in the NOD/SCID recipients."}, "[4]": {"tested_on": "PAK1, WASP, WAVE, ROCK", "test": "Example 7 phosphorylation of downstream effectors by western blot", "type": "cell-based, murine LDBM and human HCB cells", "details": "HCB and LDBM cells", "experimental": "To exclude the inhibitory effect of CASIN on other Rac isoforms, Rho GTPases, and Ras, broader effector pull-down experiments are performed on these possible candidates with gradient doses of CASIN in LDBM and HCB cells as previously described. In addition, CASIN has been indicated as a noncovalent and reversible inhibitor in Xenopus egg extract. To confirm it, reversibility is monitored in this set of effector pull-down experiments. Four treatment groups are divided for both LDBM and HCB cells: (1) Serum starvation 20 h; (2) Serum starvation 20 h+growth factors stimulation; (3) Serum starvation 20 h+CASIN treatment (doses: 1, 2.5, 5, and 10 μM) 3 h+growth factor stimulation; (4) Serum starvation 20 h+CASIN treatment (doses: 1, 2.5, 5, and 10 μM) 3 h+wash the cells, and culture for another 3 h for recovery+growth factors stimulation. […] Bound proteins are analyzed by immunoblotting with respective antibodies (BD Biosciences). Furthermore, changes of downstream targets of Cdc42, Rac, and Rho under the four treatment groups are assessed. Phosphorylation status of PAK1, WASP (effectors of Cdc42), WAVE (effector of Rac), and ROCK (effector of Rho) are monitored by western blots using respective antibodies."}, "[5]": {"tested_on": "Fancc−/− mice", "test": "Example 10 preparative regimen for BM transplantation in Fancc−/− mice", "type": "in vivo", "details": "preconditioning before BM transplantation", "experimental": "Four preparative regimens before BM transplantation on Fancc−/− mice are used to evaluate the capacity of CASIN as a preconditioning agent: (1) Control group; (2) CY group: a single dose of 40 mg/kg CY intraperitoneally; (3) CASIN group: 2.5 mg/Kg; (4) combination of CASIN and CY: one injection of CASIN is given in combination with reduced doses of CY.\nFancc−/− mice are preconditioned with each of these four regimens, and 4×10^7 BM cells from congenic strain mice are transplanted into preconditioned mice by tail vein injection. Mice that underwent transplantation are bled every four weeks to monitor the chimerism of donor-derived cells in PB. And at 3 m, the mice are sacrificed to evaluate the engraftment of donor-derived cells in BM."}, "[6]": {"target": "Cdc42 (Mus musculus, UniProt P60766)", "sequence (P60766 whole entry)": "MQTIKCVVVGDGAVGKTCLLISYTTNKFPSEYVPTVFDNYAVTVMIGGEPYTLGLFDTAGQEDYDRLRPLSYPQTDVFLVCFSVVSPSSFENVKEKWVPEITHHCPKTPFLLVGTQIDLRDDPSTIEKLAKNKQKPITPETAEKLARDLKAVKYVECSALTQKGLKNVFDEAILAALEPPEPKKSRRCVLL", "test": "Rho GTPase pull-down of BM cells after in vivo administration", "design": "from tissue; host or cells: bone marrow (LDBM) cells of C57Bl/6 mice", "details": "C57Bl/6 mice; FIG. 8a legend: BM cells harvested 20 mins after CASIN administration", "experimental": "FIG. 8A. CASIN inhibited Cdc42 activity in BM cells harvested from C57Bl/6 mice 20 mins after CASIN administration.\nWhether CASIN administration can induce mobilization of HSC/Ps to peripheral blood of C57Bl/6 mice, mimicking the phenotype observed in Cdc42 conditional knockout mice, was evaluated. First of all, mobilization of hematopoietic progenitor cells was examined by CFU-C assays functionally (FIG. 3a). […] Secondarily, to further explore the ability of CASIN to mobilize LT-HSC which is crucial for long-term repopulation of the mobilized cells, serial transplantations were carried out, where 20 million PB from CASIN-mobilized C57Bl/6 mice was transplanted into primary recipient of NOD/SCID mice, and subsequent secondary and tertiary transplants were finished as well using prior BMs (FIG. 3c). Donor chimerisms were assessed by using H2K^b congenic marker which is positive for donors of C57Bl/6 strain and negative for recipients of NOD/SCID strain. […] Therefore, the studies show CASIN can efficiently mobilize colony-forming hematopoietic progenitors and LT-HSCs with self-renewal and multi-lineage differentiation capacity. Thirdly, to further investigate the potential of CASIN to vacate the BM niche after mobilization, six-color staining of the BM cells was performed from C57Bl/6 mice with or without CASIN treatment followed by FACS analysis. […]"}}, "data": [{"compound": "OCCNC1CCCc2c1[nH]c1ccc(-c3ccccc3)cc21", "note": "(centres unmarked) [CASIN]", "values": [{"measurement": "Large induced nucleotide exchange of mant-GDP with Rho", "setting": "[1]; FIG. 6", "value": "did not affect"}, {"measurement": "inhibition of the association of mant-GDP with Rho", "setting": "[1]; at 10 times the IC50 of Cdc42", "value": "< 50", "unit": "%"}, {"measurement": "RhoA activity", "setting": "[2]", "value": "no effects"}, {"measurement": "migration activity of human progenitors", "setting": "[3]", "value": "significantly dampened"}, {"measurement": "phosphorylation of PAK1 and WASP", "setting": "[4]", "value": "inhibit"}, {"measurement": "phosphorylation of WAVE and ROCK", "setting": "[4]", "value": "without affecting"}, {"measurement": "repopulation and engraftment of donor derived cells in PB and BM of Fancc−/− recipient mice", "setting": "[5]", "value": "reasonable repopulation and engraftment of donor derived cells"}, {"measurement": "Cdc42 activity in LDBM cells after in vivo administration", "setting": "[6]", "value": "really down"}]}]}
